How the values were obtained:
[1] = Stability assay in human plasma; format: in vitro ADME; settings: 1 μM in human plasma, LC-MS/MS; read-out: t½ human plasma
Description: Compounds are incubated at a concentration of 1 μM in human (or animal) plasma. Samples are taken at fixed time points and the remnant of compound is determined by LC-MS/MS after protein precipitation. Half life in table C.2.1 is expressed in minutes.

[2] = tested on: MLC-T18/S19 phosphorylation in A7r5 cells (endogenous ROCK); assay: MLC phosphorylation assay (ELISA) in A7r5 cells; format: cell-based; settings: Rattus norvegicus, serum-free medium, phospho-MLC-T18/S19 ELISA, read-out: EC50 MLC-PP
Description: Rat smooth muscle cell line A7r5 is used. The endogenous expression of ROCK results in a constitutive phosphorylation of the regulatory myosin light chain at T18/S19. A7r5 cells were plated in DMEM supplemented with 10% FCS in multiwall cell culture plates. After serum starvation overnight, cells were incubated with compounds in serum-free medium.
Quantification of MLC-T18/S19 phosphorylation is assessed in 96 well-plates via ELISA using a phospho-MLC-T18/S19 specific antibody and a secondary detection antibody. Raw data were converted into percent substrate phosphorylation relative to high controls, which were set to 100%. EC50 values were determined using GraphPad Prism 5.01 software using a nonlinear regression curve fit with variable hill slope.

[3] = Stability towards drug metabolizing enzymes in lung S9; format: in vitro ADME; settings: human, lung S9 fraction, lung S9 with NADPH, UDPGA, PAPS and GSH, read-out: t½ human lung S9
Description: A 1 μM solution of the ROCK inhibitors is incubated with a reaction mixture containing lung S9 (EDTA-free) as well as the cofactors NADPH, UDPGA, PAPS and GSH. Samples are collected at 0, 15, 30 and 60 minutes post incubation. Negative control samples incubated with ROCK inhibitors and S9 fraction in the absence of cofactors are run in parallel. By using LC-MS/MS analysis, the percent of ROCK compounds remaining at each time point, the metabolic half-life of the ROCK compounds (expressed in minutes in table C.2.2) and the metabolic half-life of the control compounds are determined.

[4] = Stability in mouse intestinal homogenate; format: in vitro ADME; settings: 40 mg/ml mouse intestinal homogenate, read-out: t½ (min) mouse
[5] = Stability in human intestinal tissue homogenate; format: in vitro ADME; settings: 40 mg/ml human intestinal homogenate, read-out: t½ (min) human
Description: A 1 μM solution of the ROCK inhibitors is incubated with human intestinal tissue homogenate (final concentration: 40 mg/ml) Samples are collected at 0, 20 and 60 minutes post incubation. By using LC-MS/MS analysis, the percent of ROCK compounds remaining at each time point, the metabolic half-life of the ROCK compounds (expressed in minutes in table C.2.3) and the metabolic half-life of control compounds are determined.

[6] = tested on: male BALB/c mice; assay: Acute LPS lung challenge model, BALF cell counts; format: in vivo, mouse; settings: 0.1 and 0.01 mg/kg intratracheally 0.5 hr before LPS; BALF at 24 hrs; versus dexamethasone 1 mg/kg oral
Description: FIG. 1: Anti-inflammatory activity of Cpd4 in an acute LPS lung challenge model (mouse). Data is provided as bronchoalveolar lavage fluid (BALF) cell count (10^3/μl)±SEM. WBC: White Blood Cell. NEUT: Neutrophil. Dex: Dexamethasone control.
Selected compounds of the invention were evaluated in vivo in an acute LPS lung challenge model. Groups of 6 male BALB/c mice were used for each tested dose and for positive and negative controls. Under anesthesia with gas anesthetics (isoflurane), test substances and vehicle (0.9% NaCl, 1 mL/kg) were administered intratracheally (IT) to test animals 0.5 hr prior to challenge with ˜80 μg/kg of E. coli lipopolysaccharide (LPS, Sigma, serotype 055:B5, in sterile saline, 2 μg in 20 μL per mouse intratracheally). Dexamethasone, the positive control, at 1 mg/kg in 2% Tween 80 was given orally to test animals one hour before LPS challenge. Mice were anaesthetized with isoflurane at 24 hrs after LPS challenge, 0.5 mL of phosphate buffered saline (PBS, pH 7.4) was instilled into the lung twice through a tracheal cannula, after which about a total of 0.6˜0.8 mL of bronchoalveolar lavage fluid (BALF) was obtained. Total cell and neutrophils counts in BALF were then determined and one-way ANOVA followed by Dunnett's test was used to analyze difference between the vehicle control and treated groups. Significant difference is considered at P<0.05.

Structure (SMILES) | half-life at 1 μM [1] [min] | EC50 [2] [nM] | half-life at 1 μM [3] [min] | half-life at 1 μM [4] [min] | half-life at 1 μM [5] [min] | anti-inflammatory activity (BALF WBC and neutrophil count) [6]
NCc1ccc(C(=O)Nc2ccncc2F)cc1-c1cccc(C(=O)Nc2ccc(OC3CCOC3=O)cc2)c1 (stereo not shown) [Cpd 3, 6-(aminomethyl)-N^3-(3-fluoropyridin-4-yl)-N^3′-(4-((2-oxotetrahydrofuran-3-yl)oxy)phenyl)-[1,1′-biphenyl]-3,3′-dicarboxamide] | < 20 | 100 to 1000 |  |  |  | 
NCc1ccc(C(=O)Nc2ccncc2F)cc1-c1cccc(C(=O)Nc2cccc(SC3CCOC3=O)c2)c1 (stereo not shown) [Cpd 8, 6-(aminomethyl)-N^3-(3-fluoropyridin-4-yl)-N^3′-(3-((2-oxotetrahydrofuran-3-yl)thio)phenyl)-[1,1′-biphenyl]-3,3′-dicarboxamide] | < 20 | 100 to 1000 |  |  |  | 
NCc1ccc(C(=O)Nc2ccncc2F)cc1-c1cccc(C(=O)Nc2ccc(CNC3CCOC3=O)cc2)c1 (stereo not shown) [Cpd 1, 6-(aminomethyl)-N^3-(3-fluoropyridin-4-yl)-N^3′-(4-(((2-oxotetrahydrofuran-3-yl)amino)methyl)phenyl)-[1,1′-biphenyl]-3,3′-dicarboxamide] | < 20 | 100 to 1000 | > 60 |  |  | 
NCc1ccc(C(=O)Nc2ccncc2F)cc1-c1cccc(C(=O)Nc2ccc(NC3CCOC3=O)cc2)c1 (stereo not shown) [Cpd 5, 6-(aminomethyl)-N^3-(3-fluoropyridin-4-yl)-N^3′-(4-((2-oxotetrahydrofuran-3-yl)amino)phenyl)-[1,1′-biphenyl]-3,3′-dicarboxamide] | < 20 | < 100 | > 60 | > 120 |  | 
NCc1ccc(C(=O)Nc2ccncc2F)cc1-c1cccc(C(=O)Nc2ccc(SCC3CCOC3=O)cc2)c1 (stereo not shown) [Cpd 2, 6-(aminomethyl)-N^3-(3-fluoropyridin-4-yl)-N^3′-(4-(((2-oxotetrahydrofuran-3-yl)methyl)thio)phenyl)-[1,1′-biphenyl]-3,3′-dicarboxamide] | < 20 | < 100 | > 60 | > 120 | > 120 | 
CN(c1ccc(NC(=O)c2cccc(-c3cc(C(=O)Nc4ccncc4F)ccc3CN)c2)cc1)C1CCOC1=O (stereo not shown) [Cpd 7, 6-(aminomethyl)-N^3-(3-fluoropyridin-4-yl)-N^3′-(4-(methyl(2-oxotetrahydrofuran-3-yl)amino)phenyl)-[1,1′-biphenyl]-3,3′-dicarboxamide] | < 20 | < 100 | > 60 | > 120 | > 120 | 
CC1CC(Sc2ccc(NC(=O)c3cccc(-c4cc(C(=O)Nc5ccncc5F)ccc4CN)c3)cc2)C(=O)O1 (stereo not shown) [Cpd 9, 6-(aminomethyl)-N^3-(3-fluoropyridin-4-yl)-N^3′-(4-((5-methyl-2-oxotetrahydrofuran-3-yl)thio)phenyl)-[1,1′-biphenyl]-3,3′-dicarboxamide] | < 20 | < 100 |  |  |  | 
NCc1ccc(C(=O)Nc2ccncc2F)cc1-c1cccc(NC(=O)c2ccc(SC3CCOC3=O)cc2)c1 (stereo not shown) [Cpd 4, 6-(aminomethyl)-N-(3-fluoropyridin-4-yl)-3′-(4-((2-oxotetrahydrofuran-3-yl)thio)benzamido)-[1,1′-biphenyl]-3-carboxamide] | < 20 | < 100 | > 60 |  |  | equivalent to the dexamethasone control

Second part, led by results:

half-life at 1 μM [1] [min] | EC50 [2] [nM] | half-life at 1 μM [3] [min] | half-life at 1 μM [4] [min] | half-life at 1 μM [5] [min] | Structure (SMILES) | anti-inflammatory activity (BALF WBC and neutrophil count) [6]
< 20 | < 100 | > 60 |  |  | NCc1ccc(C(=O)Nc2ccncc2F)cc1-c1cccc(C(=O)Nc2ccc(SC3CCOC3=O)cc2)c1 (stereo not shown) [Cpd 6, 6-(aminomethyl)-N^3-(3-fluoropyridin-4-yl)-N^3′-(4-((2-oxotetrahydrofuran-3-yl)thio)phenyl)-[1,1′-biphenyl]-3,3′-dicarboxamide] | 
< 20 | < 100 | > 60 |  |  | NCc1ccc(C(=O)Nc2ccncc2F)cc1-c1cccc(NC(=O)c2ccc(NC3CCOC3=O)cc2)c1 (stereo not shown) [Cpd 13, 6-(aminomethyl)-N-(3-fluoropyridin-4-yl)-3′-(4-((2-oxotetrahydrofuran-3-yl)amino)benzamido)-[1,1′-biphenyl]-3-carboxamide] | 
< 20 | < 100 |  |  |  | NCc1ccc(C(=O)Nc2ccncc2F)cc1-c1cccc(C(=O)Nc2ccc(SC3CCOC3=O)cc2F)c1 (stereo not shown) [Cpd 12, 6-(aminomethyl)-N^3-(3-fluoropyridin-4-yl)-N^3′-(2-fluoro-4-((2-oxotetrahydrofuran-3-yl)thio)phenyl)-[1,1'-biphenyl]-3,3′-dicarboxamide] | 
< 20 | < 100 |  |  |  | NCc1ccc(C(=O)Nc2ccncc2F)cc1-c1cccc(C(=O)Nc2ccc(SC3COC(=O)C3)cc2)c1 (stereo not shown) [Cpd 11, 6-(aminomethyl)-N^3-(3-fluoropyridin-4-yl)-N^3′-(4-((2-oxotetrahydrofuran-4-yl)thio)phenyl)-[1,1′-biphenyl]-3,3′-dicarboxamide] | 
